Source: patent US11180504B2 (ORCHID PHARMA LTD., priority 2016, dated 2021)
In brackets after ≈: the same amount, converted by molar mass.

What was measured:
[1] = tested on: methicillin-sensitive Staphylococcus aureus; assay: MIC by broth micro-dilution (CLSI), methicillin-sensitive S. aureus; format: cell-based; settings: Staphylococcus aureus, ATCC 29213 / MSSA, MSSA S. aureus ATCC29213; read-out: MIC
[2] = tested on: carbapenem sensitive Escherichia coli; assay: MIC by broth micro-dilution (CLSI), carbapenem sensitive E. coli; format: cell-based; settings: Escherichia coli, ATCC25922, ESBL −ve E. coli ATCC25922; read-out: MIC
[3] = tested on: extended spectrum β lactamase (ESBL) SHV18 producing Klebsiella pneumoniae; assay: MIC by broth micro-dilution (CLSI), ESBL SHV18 producing K. pneumoniae; format: cell-based; settings: Klebsiella pneumoniae, ATCC700603, 22 h, ESBL +ve (SHV-18) K. pneumoniae ATCC700603; read-out: MIC
[4] = tested on: carbapenemase producing K. pneumoniae; assay: MIC by broth micro-dilution (CLSI), carbapenemase producing K. pneumoniae; format: cell-based, Klebsiella pneumoniae; settings: Klebsiella pneumoniae, ATCCBAA1705, KPC-2 K. pneumoniae ATCC BAA-1705; read-out: MIC
[5] = tested on: carbapenem sensitive Pseudomonas aeruginosa; assay: MIC by broth micro-dilution (CLSI), carbapenem sensitive P. aeruginosa; format: cell-based; settings: Pseudomonas aeruginosa, ATCC27853, Meropenem susceptible P. aeruginosa ATCC27853; read-out: MIC

SMILES	MIC [1] [µg/mL]	MIC [2] [µg/mL]	MIC [3] [µg/mL]	MIC [4] [µg/mL]	MIC [5] [µg/mL]
COCc1cn([C@H](C)[C@H]2C(=O)N3C(C(=O)O)=C(S[C@@H]4CN[C@H](C(=O)N(C)C)C4)[C@H](C)[C@H]23)nn1 [Example 233]	4 (≈ 8.36 µM)	1 (≈ 2.09 µM)	4 (≈ 8.36 µM)	4 (≈ 8.36 µM)	> 128
COCc1cn([C@H](C)[C@H]2C(=O)N3C(C(=O)O)=C(S[C@@H]4CN[C@H](CNS(N)(=O)=O)C4)[C@H](C)[C@H]23)nn1 [Example 234]	0.5 (≈ 0.97 µM)	0.5 (≈ 0.97 µM)	4 (≈ 7.76 µM)	4 (≈ 7.76 µM)	> 128
C[C@@H](NC(=O)[C@H]1CCCN1)[C@H]1C(=O)N2C(C(=O)O)=C(S[C@@H]3CN[C@H](C(=O)N(C)C)C3)[C@H](C)[C@H]12 [Example 227]	64 (≈ 133 µM)	2 (≈ 4.17 µM)	8 (≈ 16.7 µM)	4 (≈ 8.34 µM)	32 (≈ 66.7 µM)
C[C@@H](NS(C)(=O)=O)[C@H]1C(=O)N2C(C(=O)O)=C(S[C@@H]3CN[C@H](C(=O)N(CCN)CCO)C3)[C@H](C)[C@H]12 [Example 201]	16 (≈ 30.8 µM)	2 (≈ 3.85 µM)	16 (≈ 30.8 µM)	64 (≈ 123 µM)	16 (≈ 30.8 µM)
C[C@@H](NS(=O)(=O)c1cccs1)[C@H]1C(=O)N2C(C(=O)O)=C(S[C@@H]3CN[C@H](C(=O)N(C)C)C3)[C@H](C)[C@@H]12 [Example 33]	4 (≈ 7.57 µM)	4 (≈ 7.57 µM)	32 (≈ 60.5 µM)	16 (≈ 30.3 µM)	> 128
CNCC(=O)N[C@H](C)[C@H]1C(=O)N2C(C(=O)O)=C(S[C@@H]3CN[C@H](C(=O)N4CC[C@@H](NC)C4)C3)[C@H](C)[C@H]12 [Example 179]	128 (≈ 252 µM)	2 (≈ 3.93 µM)	16 (≈ 31.5 µM)	8 (≈ 15.7 µM)	16 (≈ 31.5 µM)
C[C@@H](NC(=O)C(=O)N(C)C)[C@H]1C(=O)N2C(C(=O)O)=C(S[C@@H]3CN[C@H](C(=O)N(C)C)C3)[C@H](C)[C@H]12 [Example 66]	8 (≈ 16.6 µM)	2 (≈ 4.15 µM)	8 (≈ 16.6 µM)	4 to 8 (≈ 8.31 to 16.6 µM)	> 128
C[C@@H](NC(=O)C(F)F)[C@H]1C(=O)N2C(C(=O)O)=C(S[C@@H]3CN[C@H](C(=O)N4CC[C@H](NC(=O)CC#N)C4)C3)[C@H](C)[C@H]12 [Example 119]	2 (≈ 3.52 µM)	0.5 (≈ 0.879 µM)	1 (≈ 1.76 µM)	8 (≈ 14.1 µM)	16 (≈ 28.1 µM)
C[C@@H](NC(=O)CN(C)C)[C@H]1C(=O)N2C(C(=O)O)=C(S[C@@H]3CN[C@H](C(=O)N4CC[C@@H](N)C4)C3)[C@H](C)[C@H]12 [Example 180]	128 (≈ 252 µM)	4 (≈ 7.86 µM)	32 (≈ 62.9 µM)	32 (≈ 62.9 µM)	16 (≈ 31.5 µM)
C[C@@H](NS(=O)(=O)Cc1ccccc1)[C@H]1C(=O)N2C(C(=O)O)=C(S[C@@H]3CN[C@H](C(=O)N(C)C)C3)[C@H](C)[C@H]12 [Example 16]	4 (≈ 7.45 µM)	4 (≈ 7.45 µM)	64 (≈ 119 µM)	16 (≈ 29.8 µM)	> 128
CNCC(=O)N[C@H](C)[C@H]1C(=O)N2C(C(=O)O)=C(S[C@@H]3CN[C@H](C(=O)N4C[C@H](N)[C@@H](F)C4)C3)[C@H](C)[C@H]12 [Example 217]	16 (≈ 31.2 µM)	0.5 (≈ 0.975 µM)	1 (≈ 1.95 µM)	1 (≈ 1.95 µM)	2 (≈ 3.9 µM)
C[C@@H](NS(=O)(=O)C(F)(F)F)[C@H]1C(=O)N2C(C(=O)O)=C(S[C@@H]3CN[C@H](C(=O)N4CCN(C)CC4)C3)[C@H](C)[C@H]12 [Example 25]	4 (≈ 7.02 µM)	1 (≈ 1.76 µM)	8 (≈ 14 µM)	8 (≈ 14 µM)	128 (≈ 225 µM)
CNCC(=O)N[C@H](C)[C@H]1C(=O)N2C(C(=O)O)=C(S[C@@H]3CN[C@H](C(=O)N4CCN(C(=N)N)CC4)C3)[C@H](C)[C@H]12 [Example 361, (4R,5S,6R)-3-((3S,5S)-5-(4-carbamimidoylpiperazine-1-carbonyl)pyrrolidin-3-ylthio)-4-methyl-6-((R)-1-(2-(methylamino)acetamido)ethyl)-7-oxo-1-azabicyclo[3.2.0]hept-2-ene-2-carboxylic acid]	8 (≈ 14.9 µM)	1 (≈ 1.86 µM)	4 (≈ 7.45 µM)	2 (≈ 3.73 µM)	2 (≈ 3.73 µM)
C[C@@H](NC(=O)CN(C)C)[C@H]1C(=O)N2C(C(=O)O)=C(S[C@@H]3CN[C@H](C(=O)N4CCNCC4)C3)[C@H](C)[C@H]12 [Example 182]	128 (≈ 252 µM)	8 (≈ 15.7 µM)	16 (≈ 31.5 µM)	16 (≈ 31.5 µM)	8 (≈ 15.7 µM)
CCOC(=O)N[C@H](C)[C@H]1C(=O)N2C(C(=O)O)=C(S[C@@H]3CN[C@H](C(=O)N(C)C)C3)[C@H](C)[C@H]12 [Example 15]	2 (≈ 4.4 µM)	1 (≈ 2.2 µM)	16 (≈ 35.2 µM)	16 (≈ 35.2 µM)	128 (≈ 282 µM)
C[C@@H](NS(=O)(=O)c1ccc(F)cc1)[C@H]1C(=O)N2C(C(=O)O)=C(S[C@@H]3CN[C@H](C(=O)N(C)C)C3)[C@H](C)[C@H]12 [Example 12]	8 (≈ 14.8 µM)	4 (≈ 7.4 µM)	128 (≈ 237 µM)	32 (≈ 59.2 µM)	> 128
C[C@H](NS(C)(=O)=O)C(=O)N[C@H](C)[C@H]1C(=O)N2C(C(=O)O)=C(S[C@@H]3CN[C@H](C(=O)N(C)C)C3)[C@H](C)[C@H]12 [Example 51]	8 (≈ 15 µM)	4 (≈ 7.52 µM)	32 (≈ 60.2 µM)	32 (≈ 60.2 µM)	> 128
CNCc1cn([C@H](C)[C@H]2C(=O)N3C(C(=O)O)=C(SC4CN[C@H](C(=O)N(C)C)C4)[C@H](C)[C@H]23)nn1 (some centres unmarked) [Example 208]	64 (≈ 134 µM)	4 (≈ 8.38 µM)	8 (≈ 16.8 µM)	8 (≈ 16.8 µM)	> 128
CNCC(=O)N[C@H](C)[C@H]1C(=O)N2C(C(=O)O)=C(S[C@@H]3CN[C@H](C(=O)N4CC[C@@H](O)C4)C3)[C@H](C)[C@H]12 [Example 192]	64 (≈ 129 µM)	1 (≈ 2.02 µM)	2 (≈ 4.04 µM)	2 (≈ 4.04 µM)	4 (≈ 8.07 µM)
C[C@@H](NS(C)(=O)=O)[C@H]1C(=O)N2C(C(=O)O)=C(S[C@@H]3CN[C@H](C(=O)N4CCC(O)CC4)C3)[C@H](C)[C@H]12 [Example 24]	16 (≈ 31 µM)	0.5 (≈ 0.968 µM)	1 (≈ 1.94 µM)	4 (≈ 7.74 µM)	32 to 64 (≈ 61.9 to 124 µM)
C[C@@H](NC(=O)C(F)F)[C@H]1C(=O)N2C(C(=O)O)=C(S[C@@H]3CN[C@H](C(=O)N4CC[C@H](NC(=O)CN)C4)C3)[C@H](C)[C@H]12 [Example 121]	1 (≈ 1.79 µM)	0.5 (≈ 0.895 µM)	4 (≈ 7.16 µM)	4 (≈ 7.16 µM)	8 (≈ 14.3 µM)
C[C@@H](NC(=O)C(F)F)[C@H]1C(=O)N2C(C(=O)O)=C(S[C@@H]3CN[C@H](C(=O)N4CC[C@H](NC(=N)N)C4)C3)[C@H](C)[C@H]12 [Example 195]	2 (≈ 3.68 µM)	0.5 (≈ 0.92 µM)	1 (≈ 1.84 µM)	4 (≈ 7.36 µM)	8 (≈ 14.7 µM)
C[C@@H](NC(=O)C(F)F)[C@H]1C(=O)N2C(C(=O)O)=C(S[C@@H]3CN[C@H](CN4CCNCC4)C3)[C@H](C)[C@H]12 [Example 145]	0.5 (≈ 1.03 µM)	2 (≈ 4.1 µM)	8 to 16 (≈ 16.4 to 32.8 µM)	8 (≈ 16.4 µM)	32 (≈ 65.6 µM)
COC(=S)N[C@H](C)[C@H]1C(=O)N2C(C(=O)O)=C(S[C@@H]3CN[C@H](C(=O)N(C)C)C3)[C@H](C)[C@H]12 [Example 36]	1 (≈ 2.19 µM)	2 (≈ 4.38 µM)	16 (≈ 35 µM)	16 (≈ 35 µM)	128 (≈ 280 µM)
C[C@@H](NC(=O)C(F)F)[C@H]1C(=O)N2C(C(=O)O)=C(S[C@@H]3CN[C@H](CN4CC[C@H](N)C4)C3)[C@H](C)[C@H]12 [Example 150]	4 (≈ 8.2 µM)	4 (≈ 8.2 µM)	64 (≈ 131 µM)	16 (≈ 32.8 µM)	64 (≈ 131 µM)
